# According to patent publication US20050233970A1, “Methods for treating long QT syndrome” (priority 2004, published 2005):
# Read-outs that look alike come from different tables or passages of the source. Square brackets hold non-standard residues; d marks the D form. Peptide text beside a SMILES is read from it. dPhe(4-Cl) = N[C@H](Cc1ccc(Cl)cc1)C(=O)O; d2Nal = N[C@H](Cc1ccc2ccccc2c1)C(=O)O; Lys(iPr) = CC(C)NCCCC[C@H](N)C(=O)O; NMeY = CN[C@@H](Cc1ccc(O)cc1)C(=O)O; d3Pal = N[C@H](Cc1cccnc1)C(=O)O
# Experiments:
# QT interval [1] = details: human, in vivo
# Protocol: Studies II and III required an ECG at baseline and on day 169 and, if the patient continued, on day 365. […] The ECG machine-calculated heart rate and QT interval were entered into a database. QTcB and QTcF were calculated utilizing standard formulas.^(F)
# QTc evaluations included measurement of baseline, post baseline, on-therapy and change from baseline in QTcB and QTcF in each treatment group.
# ECG measurement of QTcB and QTcF were calculated based on standard QT and heart rate measurements. T-tests were used to evaluate intra as well as inter-treatment change from baseline for each treatment group. Comparisons between treatment groups were performed in a pair wise manner.
# testosterone [2] = assay: Studies II and III: plasma testosterone (radioimmunoassay) on ECG study days; type: in vivo, human
# Protocol: QTcB and QTcF were calculated utilizing standard formulas.^(F)
# Laboratory analysis of testosterone and dihydrotestosterone were determined using certified central laboratories and standard radioimmunoessay methods.
# QT interval [3] = details: human, in vivo; remark: listed apart in the source
# Protocol: Abarelix was given as a dose of 100 mg IM on days 1, 15, 29 and every 28 days thereafter for 48 weeks. Prospectively, a standard 12-lead ECG was performed at baseline and on days 85 and 337. Plasma testosterone samples were obtained at the same time. All ECG's were analyzed in a blinded fashion to treatment allocation. Each ECG was analyzed in comparison to its respective baseline for heart rate, QRS duration, PR interval, QT interval, and QTc. Concomitant medicines and prior medical history was recorded on all patients. Patients with a baseline QT of >450 msec were to be excluded from the study. If a patient experienced a QTcB of ≧500 msec while on study, therapy was to be discontinued. […] They are the focus of this report.
# testosterone [4] = assay: Study I: plasma testosterone (radioimmunoassay) on ECG study days; type: in vivo, human
# Protocol: Abarelix was given as a dose of 100 mg IM on days 1, 15, 29 and every 28 days thereafter for 48 weeks. […] Plasma testosterone samples were obtained at the same time. All ECG's were analyzed in a blinded fashion to treatment allocation. Each ECG was analyzed in comparison to its respective baseline for heart rate, QRS duration, PR interval, QT interval, and QTc. Concomitant medicines and prior medical history was recorded on all patients. […] If a patient experienced a QTcB of ≧500 msec while on study, therapy was to be discontinued. Laboratory analysis of testosterone and dihydrotestosterone were determined using certified central laboratories and standard radioimmunoessay methods.
Structure (SMILES),QTcB Baseline (QT interval [1]),QTcB On Therapy (QT interval [1]),QTcF Baseline (QT interval [1]),QTcF On Therapy (QT interval [1]),"Testosterone Levels, Median (testosterone [2]; Baseline) [ng/dL]","Testosterone Levels, Median (testosterone [2]; Day 169) [ng/dL]",QTcB Baseline (QT interval [3]),QTcB On Therapy (QT interval [3]),QTcF Baseline (QT interval [3]),QTcF Change from Baseline (QT interval [3]),QTcF On Therapy (QT interval [3]),"Testosterone Levels, Median (testosterone [4]; Baseline) [ng/dL]","Testosterone Levels, Median (testosterone [4]; Day 85) [ng/dL]","Testosterone Levels, Median (testosterone [4]; Day 337) [ng/dL]"
"CCNC(=O)[C@@H]1CCCN1C(=O)[C@H](CCCNC(=N)N)NC(=O)[C@H](CC(C)C)NC(=O)[C@@H](CC(C)C)NC(=O)[C@H](Cc1ccc(O)cc1)NC(=O)[C@H](CO)NC(=O)[C@H](Cc1c[nH]c2ccccc12)NC(=O)[C@H](Cc1c[nH]cn1)NC(=O)[C@@H]1CCC(=O)N1 [Leuprolide, leuprolide]",421.6 (29.4) msec,441.6 (25.8) msec,414.5 (26.0) msec,432.1 (23.6) msec,342,9,–,–,–,–,–,–,–,–
"CC(=O)N[C@H](Cc1ccc2ccccc2c1)C(=O)N[C@H](Cc1ccc(Cl)cc1)C(=O)N[C@H](Cc1cccnc1)C(=O)N[C@@H](CO)C(=O)N(C)[C@@H](Cc1ccc(O)cc1)C(=O)N[C@H](CC(N)=O)C(=O)N[C@@H](CC(C)C)C(=O)N[C@@H](CCCCNC(C)C)C(=O)N1CCC[C@H]1C(=O)N[C@H](C)C(N)=O [Abarelix, abarelix] (Ac-[d2Nal][dPhe(4-Cl)][d3Pal]S[NMeY][dN]L[Lys(iPr)]P[dA]-NH2)",417.9 (28.6) msec,431.7 (29.8) msec,410.6 (28.1) msec,423.4 (28.0) msec,361,14,413.5 (26.8) msec,426.8 (22.9) msec,404.6 (23.5) msec,12.0 (16.2) msec,419.5 (21.3) msec,316,23,35
